Laboratory results from patent US9173877B1, “Compositions and methods for the treatment of local pain” (CELLIX BIO PRIVATE LIMITED, priority 2014, dated 2015).

Assay: Pharmacokinetic evaluation of Bupivacaine (BU) and Formula I (1-1) in Sprague-Dawley rats (blood and brain concentrations)
Type: in vivo
Conditions: rat, male Sprague-Dawley rats, intravenous, 3 mg/kg, n=5
Procedure: Male specific pathogen-free Sprague-Dawley rats weighing 300-350 g were obtained from the Laboratory. The animals had free access to food and water. The rat was anaesthetized with urethane 1.0 g/mL and chloralose 0.1 g/mL (1 mL/kg, i.p.) before surgery. The femoral vein was cannulated for further drug administration, and the rat's body temperature was maintained by heating pad during the experiment. All rats remained anaesthetized during the experimental period over which the Formula I (1-1) and BU concentrations in blood, brain and bile were monitored, and they were euthanized by overdose CO2 under the anaesthetic after the experimental endpoint.
Bupivacaine (3 mg/mL) was prepared in 0.9%(w/v) sodium chloride. Formula I (1-1) equivalent of BU 3 mg/mL. Rats were divided into the following groups (n=5 for each group) and received drugs intravenously: group 1 treated with (20 mg/kg) 10 min before BU (3 mg/kg) administration, group 2 treated with Formula I (1-1) (3 mg/kg).
The chromatographic system consisted of a PM-80 chromatographic pump (BAS, West Lafayette, Ind., USA), an off-line injector (CMA/140, Stockholm, Sweden) equipped with a […] sample loop injector (Rheodynemodel7125) and a UV-Vis detector (Soma, Tokyo, Japan) that operated at room temperature (25±2° C.). Separation was achieved on a LiChrosphere60RP-select B column (4.6 mm×250 mm, […], Merck). The mobile phase for plasma, brain homogenate, blood dialysate and brain dialysate was comprised of 10 mM potassium dihydrogenphosphate-acetonitrile-triethylamine (67:33:0.01), adjusted to pH4.3 with H3PO4. The mobile phase for bile dialysate consisted of 10 mM potassium dihydrogen phosphate-acetonitrile-triethylamine (60:40:0.01), adjusted to pH6.0 with H3PO4. The flow rate was set at 1.0 mL/min for both mobile phases.

AUC (Blood): 1370 ng·h/mL
half-life (Blood): 4 ± 2 min
AUC (Brain): 250 ng·h/mL
Cmax (Brain): 560 ± 130 ng/mL
SMILES: CCCCN1CCCCC1C(=O)Nc1c(C)cccc1C (stereo not shown) [BU, Bupivacaine]
